Laboratory results: patent US20110207804A1, “COMPOSITIONS FOR THE TREATMENT OF NEOPLASTIC DISEASES” (Slotervaart Participaties BV, priority 2008, published 2011)

How the values were obtained:
[1] = clinical phase I trial, docetaxel plasma pharmacokinetics; type: in vivo, human; conditions: 20 mg docetaxel liquid formulation; 100 mg ritonavir at t=0 plus 100 mg 4 hours after docetaxel; patient 306
Description: 10 patients participated in an ongoing clinical phase I trial.
These patients were given medication which consisted of a liquid formulation of docetaxel or a solid composition comprising a solid dispersion of docetaxel, PVP-K30 and SDS (referred to hereinafter as MODRA).
Docetaxel dose: 30 mg for all patients (with the exception of patient 306 who received 20 mg docetaxel). The 30 mg dose was prepared as follows: 3.0 mL Taxotere® premix for intravenous administration (containing 10 mg docetaxel per ml in polysorbate 80 (25% v/v), ethanol (10% (w/w), and water) was mixed with water to a final volume of 25 mL. This solution was orally ingested by the patient with 100 mL tap water.
Docetaxel dose: 30 mg; 2 capsules with 15 mg docetaxel per capsule were ingested. Formulation E from the previous example (1/11 docetaxel, 9/11 PVP-K30 and 1/11 SDS) was selected for further testing in the clinical trial. A new batch of formulation E was produced by dissolving 1200 mg docetaxel anhydrate in 120 mL of t-butanol, and 10800 mg PVP-K30 and 1200 mg SDS (see table 13) in 80 mL of Water for Injection. The docetaxel/t-butanol solution was added to the PVP-K30/SDS/WfI solution under constant stirring. […]
The bioavailability of the MODRA capsules was calculated by: […]

[2] = docetaxel powder dissolution test, 25 mL water in beaker; type: physicochemical; conditions: for maximum docetaxel concentration reached / maximum docetaxel in solution, % of total docetaxel present: ±6 mg docetaxel
Description: An amount of powder, equal to approximately 6 mg Docetaxel, was placed in a 50 mL beaker. A magnetic stirring bar and 25 mL water were added to the beaker. The solution was stirred at 720 rpm, and kept at approximately 37° C. Samples were collected at various timepoints, and filtrated using a 0.45 μm filter before they were diluted with a 1:4 v/v mixture of methanol and acetonitrile. The filtrated and diluted samples were subsequently analyzed by HPLC-UV (see table 15).

Structure (SMILES)	fold increase of docetaxel AUC by second boosting dose of ritonavir [1] [fold]	solubility from 10 to 60 minutes ([2]; 10 to 60 minutes)	time of stirring to maximum concentration ([2]; 25 mL WfI, 37° C., 720 rpm) [min]	maximum docetaxel concentration reached ([2]; 25 mL WfI, 37° C., 720 rpm)	maximum docetaxel in solution, % of total docetaxel present ([2]; 25 mL WfI, 37° C., 720 rpm) [%]	time at which equilibrium concentration is reached [2] [min]	equilibrium docetaxel in solution, % of total docetaxel present ([2]; after precipitation) [%]	equilibrium docetaxel concentration ([2]; after precipitation, 25 mL WfI, 37° C., 720 rpm)
CC(=O)O[C@@]12CO[C@@H]1C[C@H](O)[C@@]1(C)C(=O)[C@H](O)C3=C(C)[C@@H](OC(=O)[C@H](O)[C@@H](NC(=O)OC(C)(C)C)c4ccccc4)C[C@@](O)([C@@H](OC(=O)c4ccccc4)[C@H]21)C3(C)C [docetaxel]	1.5							
CC(=O)O[C@@]12CO[C@@H]1C[C@H](O)[C@@]1(C)C(=O)[C@H](O)C3=C(C)[C@@H](OC(=O)[C@H](O)[C@@H](NC(=O)OC(C)(C)C)c4ccccc4)C[C@@](O)([C@@H](OC(=O)c4ccccc4)[C@H]21)C3(C)C [Formulation B, Amorphous Docetaxel]		comparable to formulation A	0.5	32 µg/mL	13			
CC(=O)O[C@@]12CO[C@@H]1C[C@H](O)[C@@]1(C)C(=O)[C@H](O)C3=C(C)[C@@H](OC(=O)[C@H](O)[C@@H](NC(=O)OC(C)(C)C)c4ccccc4)C[C@@](O)([C@@H](OC(=O)c4ccccc4)[C@H]21)C3(C)C [Formulation A, Anhydrous Docetaxel]			5	approximately 12 μg/mL	~4.7	15	~2	approximately 6 μg/mL
